Measured values published in PubChem BioAssay AID1863 (Southern Research Specialized Biocontainment Screening …, 2009).
Several values for one entry are separate records, joined by “and”; a condition that tells them apart may be missing. Identical values can stand only once.

Test system: S. Typhimurium PhoP-regulated promoter GFP reporter, 4 h
Experiment: inhibitors of PhoP regulon expression, primary screen, Salmonella Typhimurium, GFP reporter (AID 1863)

Row | Structure (SMILES) | IC50
1 | CCC(C)(C)c1ccc(OCCCC[n+]2ccc(C)cc2)c(C(C)(C)CC)c1 | 66.9 µM
2 | O=C(N/N=C\c1cccc([N+](=O)[O-])c1O)C1COc2ccccc2O1 (stereo not drawn) | 105 µM
3 | CCCCCOc1ccc(Br)cc1CSC(=N)N | 58.1 µM
4 | Clc1ccc(CNCc2cccs2)cc1Cl | 73.3 µM
5 | CN(C)c1ccc(/C=C/c2ccc3ccccc3[n+]2C)cc1 | 18.7 µM
6 | O=C1c2ccccc2C(=O)c2[nH]c(=O)[nH]c21 | 14.5 µM
7 | COc1ccc(Nc2cc(C)nc(NCc3ccccc3)n2)cc1 | 97.1 µM
8 | Oc1ccc(Cl)cc1Cc1cc(Cl)ccc1O | 36.6 µM
9 | O=[N+]([O-])c1ccc(Sc2nc3ccccc3o2)c([N+](=O)[O-])c1 | 117 µM
10 | O=C(N/N=C/c1coc2ccc(Cl)cc2c1=O)c1cc(O)cc(O)c1 | 69.1 µM
11 | O=[N+]([O-])c1cc(Cl)c(O)c2ncccc12 | 6.16 µM
12 | O=[N+]([O-])c1ccc(O)c(/C=N/Nc2ccccn2)c1 | 17 µM
13 | Nc1nc2ccccc2n1Cc1ccc(Cl)c(Cl)c1 | 82.9 µM
14 | COc1ccc(CNC[C@@H](CCCCN(C)Cc2ccc(OC)cc2)N2C[C@H](c3ccccc3)N(CCc3ccc(Cl)c(Cl)c3)C(=O)C2=O)cc1 | 76.3 µM
15 | CCCCCCCCn1c2c(c(=N)c3c1CCC3)CCCC2 | 67.5 µM
16 | COc1ccc(C(=O)Cn2nc(CNc3ccc(Br)cc3)[n+]3c2CCCCC3)cc1 | 81.7 µM
17 | COc1c(F)c(F)cc2c(=O)c(C(=O)O)cn(C3CC3)c12 | 37.5 µM
18 | CCn1cc(C(=O)O)c(=O)c2cc(F)c(N3CCN(C(=S)Nc4ccc(OC)cc4)CC3)cc21 | 6.05 µM
19 | CCOc1ccc(NC(=O)c2ccc(NC(=O)c3cn4c5c(c(N6CCN(C)CC6)c(F)cc5c3=O)OCC4C)cc2)cc1 (stereo not drawn) | 2.93 µM
20 | CCCCCCCCCCOC(=O)Cn1c(COc2ccc(C)cc2)[n+](C)c2ccccc21 | 18.8 µM
21 | CCCCCCCCCCCCCCCC[N+](C)(C)CC | 24.4 µM
22 | CNC(=S)N1CCN(c2c(F)cc3c(=O)c(C(=O)O)cn(C4CC4)c3c2OC)CC1C (stereo not drawn) | 17.6 µM

Row | Structure (SMILES) | IC50
23 | CCCCCCCCCCOC(=O)Cn1c(COc2ccc(OC)cc2)[n+](C)c2ccccc21 | 22.9 µM and 22.5 µM
24 | Cc1cc(C)c2ccc(N)nc2c1O | 69.4 µM
25 | CC1CCCC(C)N1/N=C/c1c[nH]c2ccc(Br)cc12 (stereo not drawn) | 94.9 µM
26 | NC1CCN(c2nc3c(cc2F)c(=O)c(C(=O)O)cn3-c2ccc(F)cc2F)C1 (stereo not drawn) | 0.49 µM
27 | C#CCOCCOCCOCCNc1nc(N2CCN(C(=O)CCCCCCCCCCNC(=O)[C@H](CCCN=C(N)N)n3cc(C[C@@H](C)CC)nn3)CC2)nc(N2CCN(C(=O)CCCCCCCCCCNC(=O)[C@@H]([C@H](C)CC)n3cc(CCCCCN)nn3)CC2)n1 | 83.1 µM
28 | Cc1nc(N)nc(N)c1/C=C/C(C)(C)c1ccc(Cl)cc1 | 18.5 µM
29 | Oc1c(CN2CCOCC2)cc(COCc2ccccc2)c2cccnc12 | 97.8 µM
30 | CCOC(=O)N1CCN(C(=O)c2cn(CC)c3cc(N4CCN(C)CC4)c(F)cc3c2=O)CC1 | 4.9 µM
31 | Cc1ccc(C(=O)Sc2cccccc2=O)cc1 | 21.4 µM
32 | C[C@H]1O[C@@H](n2cc(F)c(=O)[nH]c2=O)[C@H](O)[C@@H]1O | 22.8 µM
33 | CCCCCCCSc1cc(OC)c(CCNC)cc1OC | 55.7 µM
34 | CCc1ccc(NC(=O)C[n+]2cc(-c3ccc(C)cc3)n3c2CCC3)cc1 | 106 µM
35 | COC1C(OC(=O)c2ccc(C)[nH]2)C(O)C(Oc2ccc3c(O)c(NC(=O)c4ccc(O)c(CC=C(C)C)c4)c(=O)oc3c2Cl)OC1(C)C (stereo not drawn) | 11.8 µM
36 | Oc1ccc(CN2CCCc3ccccc32)c2cccnc12 | 68.5 µM
37 | Nc1ncn([C@@H]2O[C@H](CO)[C@@H](O)[C@H]2O)c(=O)n1 | 50.4 µM
38 | CC[C@@H](C)[C@H](CNC)NC[C@@H](Cc1cccc2ccccc12)NCCc1cccc(C(F)(F)F)c1 | 33.2 µM
39 | CCn1cc(C(=O)O)c(=O)c2cc(F)c(N3CCN(C(=S)NC(=O)c4cccc(C)c4)CC3)cc21 | 14.7 µM
40 | Clc1ccc(OCCn2ccnc2)c2ccccc12 | 85.6 µM
41 | CN1CCN(C(c2ccc(Br)cc2)c2cc(Cl)c3cccnc3c2O)CC1 (stereo not drawn) | 30.4 µM
42 | Oc1ccc(CN2CCc3ccccc3C2)c2cccnc12 | 42.8 µM
43 | CNc1cc(Cl)c2nonc2c1[N+](=O)[O-] | 37 µM
